Experimental data from patent US20110143332A1, “METHOD FOR IDENTIFYING MICROORGANISM OR DETECTING ITS MORPHOLOGY ALTERATION USING SURFACE ENHANCED RAMAN SCATTERING (SERS)” (NATIONAL YANG-MING UNIVERSITY, priority 2007, published 2011).
Entries after “also recorded” stand apart in the source; their conditions may differ. Bridge positions count the residues as written; N and C are the ends. Square brackets hold non-standard residues; d marks the D form. Peptide text beside a SMILES is read from it. * marks the point of attachment. Ileψ(thiazoline)Cys = CC[C@H](C)[C@H](N)C1=N[C@H](C(=O)*)CS1; dOrn = NCCC[C@@H](N)C(=O)O

Tests used:
Type in all cases: cell-based
[1] = test system: Escherichia coli JM109; test: SERS monitoring of antibiotic effect on bacteria mounted on Ag/AAO substrate; conditions: 10 μg/ml ampicillin for 35 min; antibiotic susceptible strain; 0.5% agarose gel; FIG. 5
Method: (§1) Fourteen laboratory strains, Escherichia coli JM109, Escherichia coli JM109(mutant), Enterococcus faecalis 7-18 uE, Enterococcus faecium 13631, Staphylococcus aureus 13649, Staphylococcus aureus 13615, Streptococcus agalactiae 13640, Enterococcus faecalis 13641 C2, Klebsiella pneumoniae 13641 C1, Proteus mirabilis 13621 C1, Enterobacter cloacae 13457 C2, E. coli 13594 C1, E. coli 13650, Escherichia coli JM109(mutant) and E. coli 13634 were analyzed. Bacteria were grown in 5 mL of LB broth (˜6 h) to OD600=˜0.5, washed five times with PBS, and resuspended in 0.1 ml of PBS. About 3˜5 μl of the bacteria suspension is placed on the Ag/AAO substrate. 0.5% agarose gel was used to mount the bacterial samples for inhibiting the movement of bacteria. Five antibiotics: ampicillin, bacitracin, vancomycin, tetracycline and gentamycin were used in the examples. The former three could interfere with construction of the bacterial cell wall. The last two inhibited the protein synthesis in bacteria via disrupting the binding between tRNA and ribosome.
(§2) A Jobin Yvon Raman microscope (model LabRAM HR800) was used to observe the scattering excited by a 632.8 nm He—Ne laser. The spectral data acquisition time was in the 1-10 s range and the SERS spectra were obtained with a 100× microscope objective for excitation/collection. […]

[2] = test system: Enterococcus faecalis 7-18 uE; test: SERS monitoring of antibiotic effect on drug-resistant strain; conditions: 0.5% agarose gel, FIG. 11
Method: as §1, §2

[3] = test system: Escherichia coli JM109(mutant); test: SERS monitoring of antibiotic effect on bacteria mounted on Ag/AAO substrate; conditions: 25 μg/ml bacitracin for 48 min; antibiotic susceptible strain; 0.5% agarose gel; FIG. 6
Method: as §1, §2

[4] = test system: E. coli 13650; test: as above; conditions: 25 μg/ml gentamycin for 37 min; antibiotic susceptible strain; 0.5% agarose gel; FIG. 10
Method: as §1, §2

Q: `CC1(C)S[C@@H]2[C@H](NC(=O)[C@H](N)c3ccccc3)C(=O)N2[C@H]1C(=O)O` [ampicillin] was tested. Which “new peak in SERS spectrum compared with no treatment” value [1] did it give?
A: 700 cm⁻¹

Q: What about the “change of SERS spectrum (in words)” value ([2]; 10 μg/ml ampicillin for 35 min) of the same molecule?
A: No spectral changes were observed; also recorded: no changes in the spectra were observed

Q: For `CC[C@H](C)[C@H](N)C1=N[C@H](C(=O)N[C@@H](CC(C)C)C(=O)N[C@H](CCC(=O)O)C(=O)N[C@H](C(=O)N[C@H]2CCCCNC(=O)[C@H](CC(N)=O)NC(=O)[C@@H](CC(=O)O)NC(=O)[C@H](Cc3cnc[nH]3)NC(=O)[C@@H](Cc3ccccc3)NC(=O)[C@H]([C@@H](C)CC)NC(=O)[C@@H](CCCN)NC2=O)[C@@H](C)CC)CS1` [bacitracin] ({Ileψ(thiazoline)Cys}-L[dE]IK[dOrn]I[dF]H[dD]N; lactam 4-C), which “new peak in SERS spectrum compared with no treatment” value [3] is on record?
A: 700 cm⁻¹

Q: And the “change of SERS spectrum (in words)” value ([2]; 25 μg/ml bacitracin for 48 min)?
A: No spectral changes were observed; also recorded: no changes in the spectra were observed

Q: How did the “new peaks in SERS spectrum” value [4] turn out when gentamycin was run?
A: 418 cm⁻¹
